# Laboratory results as given in ChEMBL document CHEMBL1806384, “Identification of benzofuran-4,5-diones as novel and selective non-hydroxamic acid, non-peptidomimetic based inhibitors of human peptide deformylase” (Bioorg Med Chem Lett, 2011).
# pIC50: −log10 of the molar value.
# Tests used:
# [1] = target: T1, Peptide deformylase, mitochondrial (Homo sapiens) (UniProt Q9HBH1); assay: Inhibition of human peptide deformylase at 100 uM after 1 hr by fluorescence polarization based competition assay
# T1 sequence (whole entry): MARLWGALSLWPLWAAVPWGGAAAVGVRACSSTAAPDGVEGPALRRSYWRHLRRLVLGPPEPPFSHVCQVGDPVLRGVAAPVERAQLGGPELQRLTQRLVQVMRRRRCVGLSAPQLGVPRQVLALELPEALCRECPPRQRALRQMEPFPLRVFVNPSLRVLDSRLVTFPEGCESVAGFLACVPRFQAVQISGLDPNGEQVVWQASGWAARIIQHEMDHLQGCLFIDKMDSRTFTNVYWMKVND
# [2] = target: T2, Peptide deformylase (Escherichia coli) (UniProt Q9JN24); assay: Inhibition of Escherichia coli peptide deformylase at 100 uM after 1 hr by fluorescence polarization based competition assay
# T2 sequence (whole entry): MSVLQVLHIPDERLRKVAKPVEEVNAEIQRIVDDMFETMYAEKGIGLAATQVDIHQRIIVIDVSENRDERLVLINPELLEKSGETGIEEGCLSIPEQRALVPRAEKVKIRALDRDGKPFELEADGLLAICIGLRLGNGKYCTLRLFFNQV
# [3] = target: T3, Aminopeptidase N (Sus scrofa) (UniProt P15145); assay: Inhibition of porcine kidney microsomal aminopeptidase N at 100 uM after 1 hr by fluorescence polarization based competition assay
# T3 sequence (whole entry): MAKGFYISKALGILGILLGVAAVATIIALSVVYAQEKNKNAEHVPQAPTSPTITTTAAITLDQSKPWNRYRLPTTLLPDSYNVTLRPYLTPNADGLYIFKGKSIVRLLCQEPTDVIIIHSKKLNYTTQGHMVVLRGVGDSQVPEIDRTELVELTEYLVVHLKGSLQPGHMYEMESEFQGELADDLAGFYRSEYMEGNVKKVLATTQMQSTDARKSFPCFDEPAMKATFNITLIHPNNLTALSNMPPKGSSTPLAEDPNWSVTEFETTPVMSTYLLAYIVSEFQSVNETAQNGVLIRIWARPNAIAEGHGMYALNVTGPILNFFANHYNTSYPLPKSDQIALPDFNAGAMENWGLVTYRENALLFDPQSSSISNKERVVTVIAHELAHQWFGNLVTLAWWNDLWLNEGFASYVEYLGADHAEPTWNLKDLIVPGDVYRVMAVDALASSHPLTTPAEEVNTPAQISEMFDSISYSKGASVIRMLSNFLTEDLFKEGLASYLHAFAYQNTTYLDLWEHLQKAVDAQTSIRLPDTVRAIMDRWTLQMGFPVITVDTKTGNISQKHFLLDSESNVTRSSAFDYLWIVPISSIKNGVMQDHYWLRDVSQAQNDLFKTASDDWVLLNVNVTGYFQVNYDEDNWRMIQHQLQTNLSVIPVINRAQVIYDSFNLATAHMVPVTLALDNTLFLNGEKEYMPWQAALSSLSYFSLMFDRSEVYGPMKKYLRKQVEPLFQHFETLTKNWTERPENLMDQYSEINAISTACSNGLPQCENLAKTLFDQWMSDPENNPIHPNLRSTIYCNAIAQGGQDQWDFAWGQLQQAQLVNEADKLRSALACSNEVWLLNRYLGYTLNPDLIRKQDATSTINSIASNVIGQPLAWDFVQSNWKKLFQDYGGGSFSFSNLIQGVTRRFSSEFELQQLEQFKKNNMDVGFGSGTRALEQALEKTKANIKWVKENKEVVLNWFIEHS
# [4] = target: T4, Interstitial collagenase (Homo sapiens) (UniProt P03956); assay: Inhibition of human recombinant MMP1 at 100 uM after 1 hr by fluorescence polarization based competition assay
# T4 sequence (whole entry): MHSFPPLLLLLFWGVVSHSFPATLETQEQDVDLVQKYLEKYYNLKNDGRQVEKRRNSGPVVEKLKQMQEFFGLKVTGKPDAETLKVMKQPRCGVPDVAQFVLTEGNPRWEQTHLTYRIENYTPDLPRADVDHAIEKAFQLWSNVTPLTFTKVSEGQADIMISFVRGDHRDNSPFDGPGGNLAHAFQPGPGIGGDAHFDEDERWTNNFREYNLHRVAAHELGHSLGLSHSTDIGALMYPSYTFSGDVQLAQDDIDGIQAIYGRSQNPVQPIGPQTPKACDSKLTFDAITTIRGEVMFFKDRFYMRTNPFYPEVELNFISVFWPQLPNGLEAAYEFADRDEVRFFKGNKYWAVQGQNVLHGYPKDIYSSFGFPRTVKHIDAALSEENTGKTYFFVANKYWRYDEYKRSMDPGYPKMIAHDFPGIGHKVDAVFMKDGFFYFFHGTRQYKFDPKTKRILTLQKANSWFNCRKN
# HL-60 [5] = assay: Cytotoxicity against human HL60 cells; type: functional, cell-based
# HL-60 [6] = assay: Cytotoxicity against human vincristine-resistant HL60 cells; type: functional, cell-based
# Jurkat = assay: Cytotoxicity against human Jurkat cells; type: functional, cell-based
# MOLT-3 = assay: Cytotoxicity against human MOLT3 cells; type: functional, cell-based
# [7] = Cytotoxicity against human ALL3 cells; type: functional, cell-based
# [8] = Cytotoxicity against human CWR22 cells; type: functional, cell-based
# HEK293 = assay: Cytotoxicity against human HEK293 cells; type: cell-based
# Y79 = assay: Cytotoxicity against human Y79 cells; type: functional, cell-based
# [9] = Cytotoxicity against human Meso47 cells; type: functional, cell-based
# Peptide deformylase = target: T5, Peptide deformylase (Escherichia coli, UniProt Q9JN24); assay: Inhibition of Escherichia coli peptide deformylase after 1 hr by fluorescence polarization based competition assay
# T5 sequence (Q9JN24 whole entry): T2 sequence (whole entry)
Structure (SMILES),inhibition [1],inhibition [2],inhibition [3],inhibition [4],pIC50 (HL-60 [5]),pIC50 (HL-60 [6]),pIC50 (Jurkat),pIC50 (MOLT-3),pIC50 [7],pIC50 [8],pIC50 (HEK293),pIC50 (Y79),pIC50 [9],pIC50 (Peptide deformylase)
COc1ccc(C(=O)c2coc3c(Cl)c(Cl)c(O)cc23)cc1,13%,0%,0%,14%,4.00,4.00,4.00,4.00,4.00,4.00,4.00,4.00,4.00,
COc1ccc(C(=O)c2coc3c2C(=O)C(=O)C(Cl)=C3)cc1,100%,11%,54%,11%,4.49,,4.24,4.33,4.47,,4.00,,,< 4.00
COc1ccc(C(=O)c2coc3cc(Cl)c(O)c(Cl)c23)cc1,26%,3%,0%,0%,4.72,4.00,4.62,4.49,4.00,4.00,4.49,4.00,4.00,
COc1cc(C(=O)c2coc3c(Cl)c(Cl)c(O)cc23)cc(OC)c1OC,18%,2%,2%,0%,4.00,4.00,4.00,4.00,4.00,4.00,4.00,4.00,4.00,
COc1ccc(C(=O)c2coc3c(Cl)cc(O)c(Cl)c23)cc1,9%,0%,0%,0%,4.00,4.00,4.00,4.00,4.00,4.00,4.00,4.00,4.00,
COc1cc(C(=O)c2coc3c(Br)c(Br)c(O)cc23)cc(OC)c1OC,5%,7%,10%,0%,4.10,4.00,4.21,4.00,4.22,4.00,4.00,4.00,4.00,
COc1ccc(C(=O)c2coc3c(Br)cc(O)c(Br)c23)cc1,0%,0%,0%,0%,5.05,4.40,5.10,5.00,4.17,4.24,5.00,4.19,4.00,
O=C(c1ccccc1)c1coc2ccc(O)cc12,11%,7%,10%,0%,4.00,4.00,4.00,4.00,4.00,4.00,4.00,4.00,4.00,
O=C(c1ccccc1)c1coc2c(Cl)c(Cl)c(O)cc12,24%,1%,6%,0%,4.00,4.00,4.00,4.00,4.00,4.00,4.00,4.00,4.00,
COc1ccc(C(=O)c2coc3c(Br)c(Br)c(O)cc23)cc1OC,0%,0%,0%,0%,4.24,4.00,4.43,4.28,4.00,4.00,4.28,4.00,4.00,
COc1ccc(C(=O)c2coc3c(Cl)c(Cl)c(O)cc23)cc1OC,0%,0%,0%,0%,4.00,4.00,4.00,4.00,4.00,4.00,4.00,4.00,4.00,

# Now from value to molecule, other results behind:
inhibition [1],inhibition [2],inhibition [3],inhibition [4],Structure (SMILES),pIC50 (HL-60 [5]),pIC50 (HL-60 [6]),pIC50 (Jurkat),pIC50 (MOLT-3),pIC50 [7],pIC50 [8],pIC50 (HEK293),pIC50 (Y79),pIC50 [9],pIC50 (Peptide deformylase)
0%,0%,0%,10%,COc1ccc(C(=O)c2coc3cc(Br)c(O)cc23)cc1,4.00,4.00,4.00,4.14,4.00,4.33,4.14,4.00,4.00,
0%,0%,0%,0%,COc1ccc(C(=O)c2coc3c2C(=O)C(=O)c2ccccc2-3)cc1OC,,,,,,,,,,
0%,0%,4%,0%,COc1ccc(C(=O)c2coc3ccc(O)cc23)cc1,4.00,4.00,4.48,4.00,4.00,4.00,4.00,4.00,4.00,
11%,9%,0%,0%,COc1ccc(C(=O)c2coc3c(Br)cc(O)cc23)cc1,4.00,4.00,4.00,4.00,4.00,4.00,4.00,4.00,4.00,
0%,3%,0%,2%,COc1ccc(C(=O)c2coc3c(Br)c(Br)c(O)cc23)cc1,4.00,4.00,4.00,4.00,4.00,4.00,4.00,4.00,4.00,
0%,3%,0%,2%,COc1ccc(C(=O)c2coc3c2C(=O)C(=O)c2ccccc2-3)cc1,,,,,,,,,,
0%,0%,0%,0%,COc1ccc(C(=O)c2coc3ccc(O)c(Br)c23)cc1,4.00,4.00,4.00,4.00,4.00,4.00,4.00,4.00,4.00,
5%,7%,10%,0%,COc1cc(C(=O)c2coc3c2C(=O)C(=O)c2ccccc2-3)cc(OC)c1OC,,,,,,,,,,
